{"source": "ChEMBL document CHEMBL3885881", "about": "“DrugMatrix”", "species_on_record": "Rattus norvegicus", "experiment": "DrugMatrix - Regimen: Daily Repeat", "type": "toxicity, organism-based, Sprague-Dawley", "set-up": "regimen Daily Repeat, gender Male, age 6-8 weeks", "settings": "in vivo, po, 29 mg/kg, route oral GAVAGE, dose level Low, vehicle .5 % CMC; for ABSOLUTE BASOPHIL / ABSOLUTE EOSINOPHIL / ABSOLUTE LYMPHOCYTE / ABSOLUTE MONOCYTE / ABSOLUTE SEGMENTED NEUTROPHIL / BASOPHIL / EOSINOPHIL / ERYTHROCYTE COUNT / HEMATOCRIT / HEMOGLOBIN / LEUKOCYTE COUNT / LYMPHOCYTE / MEAN CORPUSCULAR HEMOGLOBIN / MEAN CORPUSCULAR HEMOGLOBIN CONCENTRATION / MEAN CORPUSCULAR VOLUME / MONOCYTE / NEUTROPHIL / NUCLEATED RED BLOOD CELLS / PLATELET COUNT: tissue Blood; for ALANINE AMINOTRANSFERASE / ALBUMIN / ALKALINE PHOSPHATASE / ASPARTATE AMINOTRANSFERASE / BLOOD UREA NITROGEN / CARBON DIOXIDE / CHLORIDE / CHOLESTEROL / CREATINE PHOSPHOKINASE / CREATININE / LACTATE DEHYDROGENASE / LIPASE / PHOSPHORUS / SODIUM / TOTAL BILIRUBIN / TOTAL PROTEIN / URIC ACID: tissue Plasma", "data": [{"smiles": "Nc1nc(O)c2ncn(COC(CO)CO)c2n1", "note": "[GANCICLOVIR]", "values": [{"measurement": "ABSOLUTE BASOPHIL", "setting": "72 h, time 3 day", "result": 0, "unit": "CELLS/uL"}, {"measurement": "ABSOLUTE EOSINOPHIL", "setting": "72 h, time 3 day", "result": 152, "unit": "CELLS/uL"}, {"measurement": "ABSOLUTE LYMPHOCYTE", "setting": "72 h, time 3 day", "result": 12965, "unit": "CELLS/uL"}, {"measurement": "ABSOLUTE MONOCYTE", "setting": "72 h, time 3 day", "result": 505.67, "unit": "CELLS/uL"}, {"measurement": "ABSOLUTE SEGMENTED NEUTROPHIL", "setting": "72 h, time 3 day", "result": 1544, "unit": "CELLS/uL"}, {"measurement": "BASOPHIL", "setting": "72 h, time 3 day", "result": 0, "unit": "%"}, {"measurement": "EOSINOPHIL", "setting": "72 h, time 3 day", "result": 1, "unit": "%"}, {"measurement": "ERYTHROCYTE COUNT", "setting": "72 h, time 3 day", "result": 5.64, "unit": "x10E6/uL"}, {"measurement": "HEMATOCRIT", "setting": "72 h, time 3 day", "result": 35.17, "unit": "%"}, {"measurement": "HEMOGLOBIN", "setting": "72 h, time 3 day", "result": 13.17, "unit": "G/DL"}, {"measurement": "LEUKOCYTE COUNT", "setting": "72 h, time 3 day", "result": 15.17, "unit": "x10E3/uL"}, {"measurement": "LYMPHOCYTE", "setting": "72 h, time 3 day", "result": 85.67, "unit": "%"}, {"measurement": "MEAN CORPUSCULAR HEMOGLOBIN", "setting": "72 h, time 3 day", "result": 23.37, "unit": "pg"}, {"measurement": "MEAN CORPUSCULAR HEMOGLOBIN CONCENTRATION", "setting": "72 h, time 3 day", "result": 37.47, "unit": "G/DL"}, {"measurement": "MEAN CORPUSCULAR VOLUME", "setting": "72 h, time 3 day", "result": 62.37, "unit": "fL"}, {"measurement": "MONOCYTE", "setting": "72 h, time 3 day", "result": 3.33, "unit": "%"}, {"measurement": "NEUTROPHIL", "setting": "72 h, time 3 day", "result": 10, "unit": "%"}, {"measurement": "NUCLEATED RED BLOOD CELLS", "setting": "72 h, time 3 day", "result": "0 /100WBC"}, {"measurement": "PLATELET COUNT", "setting": "72 h, time 3 day", "result": 1360, "unit": "x10E3/uL"}, {"measurement": "ALANINE AMINOTRANSFERASE", "setting": "72 h, time 3 day", "result": 48, "unit": "u/L"}, {"measurement": "ALBUMIN", "setting": "72 h, time 3 day", "result": 4.17, "unit": "G/DL"}, {"measurement": "ALKALINE PHOSPHATASE", "setting": "72 h, time 3 day", "result": 319.67, "unit": "u/L"}, {"measurement": "ASPARTATE AMINOTRANSFERASE", "setting": "72 h, time 3 day", "result": 96, "unit": "u/L"}, {"measurement": "BLOOD UREA NITROGEN", "setting": "72 h, time 3 day", "result": 18, "unit": "mg/dL"}, {"measurement": "CARBON DIOXIDE", "setting": "72 h, time 3 day", "result": 24, "unit": "mmol/L"}, {"measurement": "CHLORIDE", "setting": "72 h, time 3 day", "result": 103, "unit": "MEQ/L"}, {"measurement": "CHOLESTEROL", "setting": "72 h, time 3 day", "result": 67.67, "unit": "mg/dL"}, {"measurement": "CREATINE PHOSPHOKINASE", "setting": "72 h, time 3 day", "result": 635.33, "unit": "u/L"}, {"measurement": "CREATININE", "setting": "72 h, time 3 day", "result": 0.21, "unit": "mg/dL"}, {"measurement": "LACTATE DEHYDROGENASE", "setting": "72 h, time 3 day", "result": 646.33, "unit": "u/L"}, {"measurement": "LIPASE", "setting": "72 h, time 3 day", "result": 8.67, "unit": "u/L"}, {"measurement": "PHOSPHORUS", "setting": "72 h, time 3 day", "result": 14.2, "unit": "mg/dL"}, {"measurement": "SODIUM", "setting": "72 h, time 3 day", "result": 145.5, "unit": "MEQ/L"}, {"measurement": "TOTAL BILIRUBIN", "setting": "72 h, time 3 day", "result": 0.2, "unit": "mg/dL"}, {"measurement": "TOTAL PROTEIN", "setting": "72 h, time 3 day", "result": 5.9, "unit": "G/DL"}, {"measurement": "URIC ACID", "setting": "72 h, time 3 day", "result": 2.23, "unit": "mg/dL"}, {"measurement": "ABSOLUTE BASOPHIL", "setting": "120 h, time 5 day", "result": 0, "unit": "CELLS/uL"}, {"measurement": "ABSOLUTE EOSINOPHIL", "setting": "120 h, time 5 day", "result": 86.67, "unit": "CELLS/uL"}, {"measurement": "ABSOLUTE LYMPHOCYTE", "setting": "120 h, time 5 day", "result": 11979.33, "unit": "CELLS/uL"}, {"measurement": "ABSOLUTE MONOCYTE", "setting": "120 h, time 5 day", "result": 137.33, "unit": "CELLS/uL"}, {"measurement": "ABSOLUTE SEGMENTED NEUTROPHIL", "setting": "120 h, time 5 day", "result": 1530, "unit": "CELLS/uL"}, {"measurement": "BASOPHIL", "setting": "120 h, time 5 day", "result": 0, "unit": "%"}, {"measurement": "EOSINOPHIL", "setting": "120 h, time 5 day", "result": 0.67, "unit": "%"}, {"measurement": "ERYTHROCYTE COUNT", "setting": "120 h, time 5 day", "result": 5.69, "unit": "x10E6/uL"}, {"measurement": "HEMATOCRIT", "setting": "120 h, time 5 day", "result": 35.37, "unit": "%"}, {"measurement": "HEMOGLOBIN", "setting": "120 h, time 5 day", "result": 13.23, "unit": "G/DL"}, {"measurement": "LEUKOCYTE COUNT", "setting": "120 h, time 5 day", "result": 13.73, "unit": "x10E3/uL"}, {"measurement": "LYMPHOCYTE", "setting": "120 h, time 5 day", "result": 87, "unit": "%"}, {"measurement": "MEAN CORPUSCULAR HEMOGLOBIN", "setting": "120 h, time 5 day", "result": 23.27, "unit": "pg"}, {"measurement": "MEAN CORPUSCULAR HEMOGLOBIN CONCENTRATION", "setting": "120 h, time 5 day", "result": 37.47, "unit": "G/DL"}, {"measurement": "MEAN CORPUSCULAR VOLUME", "setting": "120 h, time 5 day", "result": 62.13, "unit": "fL"}, {"measurement": "MONOCYTE", "setting": "120 h, time 5 day", "result": 1, "unit": "%"}, {"measurement": "NEUTROPHIL", "setting": "120 h, time 5 day", "result": 11.33, "unit": "%"}, {"measurement": "NUCLEATED RED BLOOD CELLS", "setting": "120 h, time 5 day", "result": "0 /100WBC"}, {"measurement": "PLATELET COUNT", "setting": "120 h, time 5 day", "result": 1168, "unit": "x10E3/uL"}, {"measurement": "ALANINE AMINOTRANSFERASE", "setting": "120 h, time 5 day", "result": 47.67, "unit": "u/L"}, {"measurement": "ALBUMIN", "setting": "120 h, time 5 day", "result": 4.2, "unit": "G/DL"}, {"measurement": "ALKALINE PHOSPHATASE", "setting": "120 h, time 5 day", "result": 323, "unit": "u/L"}, {"measurement": "ASPARTATE AMINOTRANSFERASE", "setting": "120 h, time 5 day", "result": 91.67, "unit": "u/L"}, {"measurement": "BLOOD UREA NITROGEN", "setting": "120 h, time 5 day", "result": 19.33, "unit": "mg/dL"}, {"measurement": "CARBON DIOXIDE", "setting": "120 h, time 5 day", "result": 25.33, "unit": "mmol/L"}, {"measurement": "CHLORIDE", "setting": "120 h, time 5 day", "result": 106.33, "unit": "MEQ/L"}, {"measurement": "CHOLESTEROL", "setting": "120 h, time 5 day", "result": 74.67, "unit": "mg/dL"}, {"measurement": "CREATINE PHOSPHOKINASE", "setting": "120 h, time 5 day", "result": 428.33, "unit": "u/L"}, {"measurement": "CREATININE", "setting": "120 h, time 5 day", "result": 0.15, "unit": "mg/dL"}, {"measurement": "LACTATE DEHYDROGENASE", "setting": "120 h, time 5 day", "result": 720, "unit": "u/L"}, {"measurement": "LIPASE", "setting": "120 h, time 5 day", "result": 8.67, "unit": "u/L"}, {"measurement": "PHOSPHORUS", "setting": "120 h, time 5 day", "result": 11.4, "unit": "mg/dL"}, {"measurement": "SODIUM", "setting": "120 h, time 5 day", "result": 145.9, "unit": "MEQ/L"}, {"measurement": "TOTAL BILIRUBIN", "setting": "120 h, time 5 day", "result": 0.13, "unit": "mg/dL"}, {"measurement": "TOTAL PROTEIN", "setting": "120 h, time 5 day", "result": 5.77, "unit": "G/DL"}, {"measurement": "URIC ACID", "setting": "120 h, time 5 day", "result": 0.83, "unit": "mg/dL"}]}]}
